# Laboratory results as given in patent US8791155B2, “Chroman derivatives” (Edison Pharmaceuticals, Inc., priority 2003, dated 2014).
# Experiments:
# [1] = system: release of the leukotriene LTB4 from MPRO cell line; assay: LTB4 assay (competitive ELISA); assay type: cell-based; settings: Mus musculus; 1 μM calcium ionophore A23187, 1 hour; read-out: EC50, inhibition of LTB4 production
# Excerpt: This procedure was used for measuring the release of the leukotriene LTB4 from a neutrophil cell line using a competitive ELISA technique.
# • MPRO cell line (ATCC, Catalog #CRL-11422) • Calciumionophore (A23187) (Sigma, Catalog #C7522) • Nordihydroguaiaretic acid (NDGA) (BioMol, Catalog #E1101-0001) • Retinoic Acid (all-trans) (ATRA) (Sigma, Catalog #95152) • Sterile, tissue-culture treated 96-well plates (Corning, Catalog #3614) Materials for LTB4 ELISA • Precoated (Mouse Anti-Rabbit IgG) EIA 96 Well Strip Plates (Cayman, Catalog #400004) • Leukotriene B4 AChE Tracer (Cayman Catalog #420110) • Leukotriene B4 EIA Antiserum (Cayman Catalog #420112) • Ellman's Reagent (Cayman Catalog #400050) • EIA Buffer Concentrate (10×) (Cayman Catalog #400060) • Wash Buffer Concentrate (400×) (Cayman Catalog #400062) • Plastic plate covers (Cayman Catalog #400012) Procedure
# A mouse promyelocytic cell line (MPRO) was used in this assay. These cells are committed immature neutrophils that can be differentiated into mature neutrophils by treatment with 10 μM all-trans retinoic acid for 72 hours
# Following 72 hours of differentiation, cells were stimulated with 1 μM of a calcium ionophore (A23187) in the presence or absence of test compound or vehicle for 1 hour at 370 C. After this time, supernatant was removed from the cells and the LTB4 levels were determined following manufacturer's instructions, using a Leukotriene B4 EIA kit from Cayman (Cat #520111)
# The negative controls were media samples from differentiated but unstimulated cells.
# The compounds were screened at 5 concentrations in quadruplicate starting at 10 μM
# [2] = system: IL-1β release from a mouse microglial cell line; assay: Interleukin-1β microglial cell assay (LPS / IFN gamma); assay type: cell-based; settings: LPS (10 μg/ml) and IFN gamma (10 ng/ml), 24 hours, read-out: EC50, inhibition of IL-1 beta induction
# Experimental: This assay measures the release of IL-1β from a mouse microglial cell line following an inflammatory challenge with LPS and interferon-gamma. The ability of test articles to inhibit microglial cell activation and IL-1β release is determined by co-incubation of the test article with the inflammatory challenge.
# Mouse microglial cells were seeded in poly-D-lysine coated 96-well plates at a density of 10,000 cells/well and allowed to attach for 24 hours. Cells were stimulated by addition of LPS (10 μg/ml) and IFN gamma (10 ng/ml) in the presence or absence of test article. The cells were then incubated for 24 hours at 37° C., after which time the media was removed and used for cytokine determination as described below.
# Viability of mouse microglial cells after exposure to the test article was determined using a fluorescent viability dye, Cell Tracker Green. Cell Tracker Green was used at a working concentration of 5 μM in 1×HBSS. Cells were washed once with HBSS (200 μl/well) and 100 μl Cell Tracker Green was added to each well. Cells were then incubated at 37° C. for 30 minutes, after which time the Cell Tracker was removed and the cells were washed once with HBSS (200 μl/well). 100 pl fresh HBSS was added to each well and the plate was read on a Fluoroskan plate reader using an excitation wavelength of 485 nm and an emission wavelength of 538 nm.
# 1. […]
# • The Costar EIA Hi-binding plate was coated with capture antibody at 4 μg/ml. […] Each well was filled to the top, dispensed, and any remaining buffer was removed by inverting the plate and gently blotting against clean paper towels. • Non-specific binding sites were blocked by adding 300 μl of Blocking Buffer to each well, and after sealing incubating for at least 1 hour at room temperature. • After washing the plate was now ready for the samples. […] 100 μl of this Substrate Solution mixture was added to each well and the plate was incubated in the dark for 20 minutes at room temperature. • 50 μl of Stop Solution was added to each well, mixing was ensured by gently tapping. • Each plate was read with the Spectramax once at 450 nm. […]
smiles,measurement,setting,value
"COC(=O)c1ccc(-c2c(O)c(C)c(C)c3c2CCC(C)(C)O3)cc1 [4-(6-Hydroxy-2,2,7,8-tetramethyl-chroman-5-yl)-benzoic acid methyl ester]",EC50,[1],< 1000 nM
"Cc1c(O)cc2c(c1C)OC(C)(CC/C=C1\SC(=O)NC1=O)CC2 (centres unmarked) [5-[3-(6-Hydroxy-2,7,8-trimethyl-chroman-2-yl)-propylidene]-thiazolidine-2,4-dione]",EC50,[2],≤ 20 µM
"C=CCSCc1c(O)c(C)c(C)c2c1CCC(C)(C)O2 [5-Allylsulfanylmethyl-2,2,7,8-tetramethyl-chroman-6-ol]",EC50,[1],< 1000 nM
"CC1=NN(c2ccccc2)C(=O)C1C(CCC1(C)CCc2cc(O)c(C)c(C)c2O1)C1C(=O)N(c2ccccc2)N=C1C (centres unmarked) [1-(6-Hydroxy-2,7,8-trimethyl-chroman-2-yl)-3-bis-(5-methyl-2-phenyl-2,4-dihydro-pyrazol-3-one-4-yl)-propane]",EC50,[2],≤ 20 µM
"Cc1c(C)c2c(c(C)c1O)CCC(C)(C=C(Br)Br)O2 (centres unmarked) [2-(2,2-Dibromo-vinyl)-2,5,7,8-tetramethyl-chroman-6-ol]",EC50,[1],< 1000 nM
